The source of these data is patent publication US20250197387A1, “BCL-XL DEGRADERS AND USES THEREOF” (Kymera Therapeutics, Inc., priority 2021, published 2025).

The structures appear in SMILES notation. Where two headings read alike, the source gives them in different places.

Holding throughout (format): cell-based
One test has as its system MOLT-4 cells. The experiment in a line: CTG (CellTiter-Glo) cell viability assay, MOLT-4. The note with it: Homo sapiens, 3 day incubation, read-out: CTG Cell Viability Assay - MOLT-4 3 day: Average external-IC50. Put shortly: (§1)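 MOLT-4 and Caki-2 cells were seeded at 10,000 per well and treated with a 9-point, 1:3 dilution series from 10 μM top concentration (0.2% DMSO). After 3 days at 37 °C, 5% CO2, viability was read by CellTiter-Glo luminescence and IC50 fitted by three-parameter logistic.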
(In general: ATP-based viability assays read luminescence as a measure of living cells.)

In the next test the target is T1, BCL-XL (Homo sapiens, UniProt Q07817).
T1 construct: endogenous in cells; host or cells: MOLT-4
T1 sequence (Q07817 whole entry): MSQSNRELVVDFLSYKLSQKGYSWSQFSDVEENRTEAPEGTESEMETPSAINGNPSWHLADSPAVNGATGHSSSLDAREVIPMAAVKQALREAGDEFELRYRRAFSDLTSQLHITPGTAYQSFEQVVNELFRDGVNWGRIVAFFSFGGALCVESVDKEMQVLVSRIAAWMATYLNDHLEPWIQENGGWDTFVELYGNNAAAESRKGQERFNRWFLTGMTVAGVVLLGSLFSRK
The experiment in a line: Bcl-xL ELISA degradation in MOLT-4 cells, 6 h. To be noted: for DC50: read-out: Bcl-xL ELISA in MOLT-4 degradation 6 h: Mean external-Abs DC50. As for the experimental part:
The letter codes for BCL-XL DC50 include: A (<0.01 μM); B (0.01-0.1 μM); C (>[…]); D (>0.5-1.0 μM); and E (>1.0 μM). The letter codes for Dmax % include A (>75%); B (50 to 75%); C (<50%).

In another test the test system is Caki-2 cells. Description: CTG (CellTiter-Glo) cell viability assay, Caki-2. To be noted: Homo sapiens, 72 h, 3 day incubation, read-out: CTG Chempartner - Caki-2 3 day: Average external-IC50. Put shortly: as §1

As to `C#Cc1ccc([C@H](CO)NC(=O)[C@@H]2C[C@@H](O)CN2C(=O)[C@@H](NC(=O)CCCCCS(=O)(=O)NC(=O)c2nc(N3CCc4cccc(C(=O)Nc5nc6cccnc6s5)c4C3)ccc2-c2cnn(CC3CCCCC3)c2C)C(C)(C)C)cc1` [I-488], the half-inhibitory concentration (IC50) is less than 100 nM with MOLT-4 cells (MOLT-4, 72 h) and more than 10 µM with Caki-2 cells. At BCL-XL, this molecule yielded a Dmax of more than 75%. The half-maximal degradation concentration (DC50) on BCL-XL was 10 to 100 nM.

Consider `Cc1ncsc1-c1ccc([C@H](C)NC(=O)[C@@H]2C[C@@H](O)CN2C(=O)[C@@H](NC(=O)CCCCCS(=O)(=O)NC(=O)c2nc(N3CCc4cccc(C(=O)Nc5nc6ccccc6s5)c4C3)ccc2-c2cnn(CC(C)(C)C)c2C)C(C)(C)C)cc1` [I-465], for which the IC50 in the test with MOLT-4 cells (MOLT-4, 72 h) is 100 to 1000 nM; in the test with Caki-2 cells it was more than 10 µM. In addition, the Dmax on BCL-XL was more than 75%. Also, the 50% degradation concentration (DC50) at BCL-XL was in the range of 10 to 100 nM.

On to `C#Cc1ccc([C@H](COC)NC(=O)[C@@H]2C[C@@H](O)CN2C(=O)[C@@H](NC(=O)CCCCCS(=O)(=O)NC(=O)c2nc(N(C)c3cc(C)c(Nc4nc5ccccc5s4)nn3)ccc2-c2cnn(CC34CC5CC(CC(C5)C3)C4)c2C)C(C)(C)C)cc1` [I-476], for which the 50% inhibitory concentration (IC50) in the test on MOLT-4 cells (MOLT-4, 72 h) was less than 100 nM; in the test with Caki-2 cells it was more than 10 µM. On BCL-XL, the Dmax was more than 75%. In addition, the DC50 on BCL-XL was less than 10 nM.

Turning to `C#Cc1ccc([C@H](C)NC(=O)[C@@H]2C[C@@H](O)CN2C(=O)[C@@H](NC(=O)C2CN(c3ccc(S(=O)(=O)NC(=O)c4nc(N(C)c5cc(C)c(Nc6nc7ccccc7s6)nn5)ccc4-c4cnn(CC56CC7CC(CC(C7)C5)C6)c4C)cc3)C2)C(C)(C)C)cc1` [I-438], in the test with MOLT-4 cells (MOLT-4, 72 h), the IC50 is less than 100 nM. In addition, on BCL-XL, the Dmax is more than 75% and the half-maximal degradation concentration (DC50) is less than 10 nM. Besides, in the test on Caki-2 cells, the IC50 is more than 10 µM.

Turning to `C#Cc1ccc(CNC(=O)[C@@H]2C[C@@H](O)CN2C(=O)[C@@H](NC(=O)CCCCCS(=O)(=O)NC(=O)c2nc(N3CCc4cccc(C(=O)Nc5nc6ccccc6s5)c4C3)ccc2-c2cnn(CC3CCCCC3)c2C)C(C)(C)CCOP(=O)(O)O)cc1` [I-417], the half-maximal inhibitory concentration (IC50) with MOLT-4 cells (MOLT-4, 72 h) is more than 3000 nM. In addition, at BCL-XL, the Dmax was 50 to 75% and the half-maximal degradation concentration (DC50) was more than 1000 nM. For the same molecule, in the test with Caki-2 cells, the half-maximal inhibitory concentration (IC50) was more than 10 µM.

On to `C#Cc1ccc([C@H](CO)NC(=O)[C@@H]2C[C@@H](O)CN2C(=O)[C@@H](NC(=O)CCCCCS(=O)(=O)NC(=O)c2nc(N(C)c3cc(C)c(Nc4nc5ccccc5s4)nn3)ccc2-c2cnn(CC34CC5CC(CC(C5)C3)C4)c2C)C(C)(C)C)cc1` [I-474], for which the IC50 in the test on MOLT-4 cells (MOLT-4, 72 h) is less than 100 nM. On BCL-XL, the greatest degradation seen (Dmax) was more than 75% and the 50% degradation concentration (DC50) is less than 10 nM. Also, the IC50 in the test with Caki-2 cells is more than 10 µM.

Turning to `Cc1ncsc1-c1ccc(CNC(=O)[C@@H]2C[C@@H](O)CN2C(=O)[C@@H](NC(=O)C2CN(c3ccc(S(=O)(=O)NC(=O)c4nc(N5CCc6cccc(C(=O)Nc7nc8ccccc8s7)c6C5)ccc4-c4cnn(CC5CCCCC5)c4C)cc3F)C2)C(C)(C)C)cc1` [I-330], the half-inhibitory concentration (IC50) in the test on MOLT-4 cells (MOLT-4, 72 h) was less than 100 nM. Also, at BCL-XL, the Dmax is 50 to 75% and the DC50 was in the range of 10 to 100 nM. In the test with Caki-2 cells, the IC50 fell in the range of 1 to 10 µM.

Regarding `Cc1ncsc1-c1ccc([C@H](C)NC(=O)[C@@H]2C[C@@H](O)CN2C(=O)[C@@H](NC(=O)CCCCCS(=O)(=O)NC(=O)c2nc(N3CCc4cccc(C(=O)Nc5nc6cccnc6s5)c4C3)ccc2-c2cnn(CC(C)(C)C)c2C)C(C)(C)C)cc1` [I-466], the IC50 in the test on MOLT-4 cells (MOLT-4, 72 h) was in the range of 1000 to 3000 nM. On BCL-XL, the Dmax is more than 75% and the DC50 was 100 to 500 nM. For the same molecule, the IC50 in the test with Caki-2 cells was more than 10 µM.

On to `Cc1cc(N(C)c2ccc(-c3cnn(CC45CC6CC(CC(C6)C4)C5)c3C)c(C(=O)NS(=O)(=O)CCCCCC(=O)N[C@H](C(=O)N3C[C@H](O)C[C@H]3C(=O)N[C@@H](C)c3ccc(-c4scnc4C)cc3)C(C)(C)C)n2)nnc1Nc1nc2ccccc2s1` [I-356], for which the IC50 with MOLT-4 cells (MOLT-4, 72 h) was less than 100 nM. Further, on BCL-XL, the greatest degradation seen (Dmax) was more than 75% and the DC50 was less than 10 nM. In addition, in the test on Caki-2 cells, the concentration for half-maximal inhibition (IC50) is more than 10 µM.

With `C#Cc1ccc(CNC(=O)[C@@H]2C[C@@H](O)CN2C(=O)[C@@H](NC(=O)CCNCCS(=O)(=O)NC(=O)c2nc(N3CCc4cccc(C(=O)Nc5nc6cccnc6s5)c4C3)ccc2-c2cnn(CC3CCCCC3)c2C)C(C)(C)C)cc1` [I-375], the IC50 with MOLT-4 cells (MOLT-4, 72 h) was in the range of 1000 to 3000 nM. Moreover, at BCL-XL, the greatest degradation seen (Dmax) is more than 75% and the DC50 fell in the range of 10 to 100 nM. In addition, the half-inhibitory concentration (IC50) in the test with Caki-2 cells is more than 10 µM.

Turning to `Cc1cc(N(C)c2ccc(-c3cnn(CC45CC6CC(CC(C6)C4)C5)c3C)c(C(=O)NS(=O)(=O)CCCCC(=O)N[C@H](C(=O)N3C[C@H](O)C[C@H]3C(=O)N[C@@H](C)c3ccc(-c4scnc4C)cc3)C(C)(C)C)n2)nnc1Nc1nc2ccccc2s1` [I-372], the IC50 in the test with MOLT-4 cells (MOLT-4, 72 h) was less than 100 nM. Moreover, at BCL-XL, the Dmax is more than 75% and the 50% degradation concentration (DC50) was 10 to 100 nM. In the test on Caki-2 cells, the IC50 was more than 10 µM.

As for `C#Cc1ccc([C@H](C)NC(=O)[C@@H]2C[C@@H](O)CN2C(=O)[C@@H](NC(=O)CCCCCS(=O)(=O)NC(=O)c2nc(N(C)c3cc(C)c(Nc4nc5ccccc5s4)nn3)ccc2-c2cnn(CC(C)(C)C)c2C)C(C)(C)C)cc1` [I-473], the IC50 in the test on MOLT-4 cells (MOLT-4, 72 h) fell in the range of 1000 to 3000 nM. For the same molecule, at BCL-XL, the Dmax was more than 75% and the DC50 was in the range of 500 to 1000 nM. Also, in the test with Caki-2 cells, the IC50 was more than 10 µM.

On to `Cc1cc(N(C)c2ccc(-c3cnn(CC45CC6CC(CC(C6)C4)C5)c3C)c(C(=O)NS(=O)(=O)CC3CCN(CC(=O)N[C@H](C(=O)N4C[C@H](O)C[C@H]4C(=O)N[C@@H](C)c4ccc(-c5scnc5C)cc4)C(C)(C)C)CC3)n2)nnc1Nc1nc2cccnc2s1` [I-449], for which the IC50 in the test on MOLT-4 cells (72 h) was more than 3000 nM. In addition, on BCL-XL, the Dmax was more than 75% and the DC50 lay within 100 to 500 nM. Moreover, the half-inhibitory concentration (IC50) in the test with Caki-2 cells was more than 10 µM.

For `C#Cc1ccc(CNC(=O)[C@@H]2C[C@@H](O)CN2C(=O)[C@@H](NC(=O)CCCCCS(=O)(=O)NC(=O)c2nc(N3CCc4cccc(C(=O)Nc5nc6ccccc6s5)c4C3)ccc2-c2cnn(CC3CCCC3)c2C)C(C)(C)C)cc1` [I-444], in the test on MOLT-4 cells (MOLT-4, 72 h), the IC50 was less than 100 nM. At BCL-XL, the maximal degradation (Dmax) is more than 75% and the DC50 was less than 10 nM. Further, the half-inhibitory concentration (IC50) in the test with Caki-2 cells was more than 10 µM.

Regarding `Cc1ncsc1-c1ccc([C@H](C)NC(=O)[C@@H]2C[C@@H](O)CN2C(=O)[C@@H](NC(=O)CCCCCS(=O)(=O)NC(=O)c2nc(N3CCc4cccc(C(=O)Nc5nc6c(F)cccc6s5)c4C3)ccc2-c2cnn(CC3CCCCC3)c2C)C(C)(C)C)cc1` [I-459], the IC50 in the test on MOLT-4 cells (MOLT-4, 72 h) is less than 100 nM. Also, on BCL-XL, the maximal degradation (Dmax) was more than 75% and the half-maximal degradation concentration (DC50) was less than 10 nM. Further, the half-inhibitory concentration (IC50) in the test with Caki-2 cells is more than 10 µM.

As for `Cc1ncsc1-c1ccc([C@H](C)NC(=O)[C@@H]2C[C@@H](O)CN2C(=O)[C@@H](NC(=O)C2CCN(c3ccc(S(=O)(=O)NC(=O)c4nc(N5CCCc6c5nnc(Nc5nc7ccccc7s5)c6C)ccc4-c4cnn(CC5CCCCC5)c4C)cc3)CC2)C(C)(C)C)cc1` [I-310], the half-inhibitory concentration (IC50) in the test with MOLT-4 cells (MOLT-4, 72 h) was less than 100 nM. For the same molecule, on BCL-XL, the Dmax was more than 75% and the 50% degradation concentration (DC50) lay in the range of 10 to 100 nM. Also, the half-maximal inhibitory concentration (IC50) in the test on Caki-2 cells was more than 10 µM.

Take `C#Cc1ccc(CNC(=O)[C@@H]2C[C@@H](O)CN2C(=O)[C@H](c2cc(N3CCN(c4ccc(S(=O)(=O)NC(=O)c5nc(N6CCc7cccc(C(=O)Nc8nc9ccccc9s8)c7C6)ccc5-c5cnn(CC6CCCCC6)c5C)cc4)CC3)no2)C(C)C)c(OC)c1` [I-408]: the half-maximal inhibitory concentration (IC50) is less than 100 nM in the test with MOLT-4 cells (MOLT-4, 72 h) and more than 10 µM with Caki-2 cells. For the same molecule, at BCL-XL, the maximal degradation (Dmax) fell in the range of 50 to 75%. On BCL-XL, the DC50 is less than 10 nM.

By IC50 is commonly meant the midpoint of a concentration-inhibition curve. What is called Dmax is the largest share of the target that was removed. One may read the DC50 as the midpoint of the concentration-degradation curve.
